# Values joined by “and” are separate entries in the source; they are usually repeats but may differ in a detail not shown here. Equal values may be shown once. Where a name gives a salt, the structure may show the parent alone.
# Biological target: T1, human p38 kinase alpha (Homo sapiens, UniProt Q16539)
# T1 construct: The coding region of the human p38α cDNA was obtained by PCR-amplification from RNA isolated from the human monocyte cell line THP.1; made in house; host or cells: E. coli DH10B
# Test: In vitro p38 kinase inhibition analysis (PHAS-I 32P-ATP or EGFRP 33P-ATP format)
# Format: biochemical
# Settings: Table 1; compounds of Examples 1-28; one of two in vitro assay methods; Phosphate Dihydrate; read-out: p38α Kinase Inhibition (IC50 in μM)
# Description: The ability of compounds to inhibit human p38 kinase alpha was evaluated using one of two in vitro assay methods. In the first method, activated human p38 kinase alpha phosphorylates a biotinylated substrate, PHAS-I (phosphorylated heat and acid stable protein-insulin inducible), in the presence of gamma ^32P-ATP (^32P-ATP). PHAS-I was biotinylated before the assay, and provided a means of capturing the substrate which was phosphorylated during the assay. p38 Kinase was activated by MKK6. Compounds were tested in 10 fold serial dilutions over the range of 100 μM to 0.001 μM using 1% DMSO. Each concentration of inhibitor was tested in triplicate.
# All reactions were carried out in 96 well polypropylene plates. Each reaction well contained 25 mM HEPES pH 7.5, 10 mM magnesium acetate, and 50 μM unlabeled ATP. […] Activated human p38 kinase alpha was used at 1 μg per 50 μl reaction volume, representing a final concentration of 0.3 μM. Gamma ^32P-ATP was used to follow the phosphorylation of PHAS-I. ^32P-ATP has a specific activity of 3000 Ci/mmol, and was used at 1.2 μCi per 50 μl reaction volume. The reaction proceeded either for one hr or overnight at 30° C.
# Following incubation, 20 μl of reaction mixture was transferred to a high capacity streptavidin coated filter plate (SAM-streptavidin-matrix, Promega) prewetted with phosphate buffered saline. The transferred reaction mix was allowed to contact the streptavidin membrane of the Promega plate for 1-2 min. […] Filter plates were air dried and 20 μl of scintillant was added. The plates were sealed and counted.
# A second assay format was alternatively employed. This assay is based on p38 kinase alpha being induced phosphorylation of EGFRP (epidermal growth factor receptor peptide, a 21 mer) in the presence of ^33P-ATP. Compounds were tested in 10 fold serial dilutions over the range of 100 μM to 0.001 μM in 10% DMSO. Each concentration of inhibitor was tested in triplicate. Compounds were evaluated in 50 μl reaction volumes in the presence of 25 mM HEPES pH 7.5, 10 mM magnesium acetate, 4% glycerol, 0.4% bovine serum albumin, 0.4 mM DTT, 50 μM unlabeled ATP, 25 μg EGFRP (200 μM), and 0.05 uCi gamma ^33P-ATP. Reactions were initiated by addition of 0.09 μg of activated, purified human GST-p38 kinase alpha. Activation was carried out using GST-MKK6 (5:1,p38:MKK6) for one hr at 30° C. in the presence of 50 μM ATP. Following incubation for 60 min at room temperature, the reaction was stopped by addition of 150 μl of AG 1×8 resin in 900 mM sodium formate buffer, pH 3.0 (1 volume resin to 2 volumes buffer). The mixture was mixed three times with pipetting. Afterward, the resin was allowed to settle. A total of 50 μl of clarified solution head volume was transferred from the reaction wells to Microlite-2 plates. 150 μl of Microscint 40 was then added to each well of the Microlite plate, and the plate was sealed, mixed, and counted.
# T1 sequence (Q16539 whole entry): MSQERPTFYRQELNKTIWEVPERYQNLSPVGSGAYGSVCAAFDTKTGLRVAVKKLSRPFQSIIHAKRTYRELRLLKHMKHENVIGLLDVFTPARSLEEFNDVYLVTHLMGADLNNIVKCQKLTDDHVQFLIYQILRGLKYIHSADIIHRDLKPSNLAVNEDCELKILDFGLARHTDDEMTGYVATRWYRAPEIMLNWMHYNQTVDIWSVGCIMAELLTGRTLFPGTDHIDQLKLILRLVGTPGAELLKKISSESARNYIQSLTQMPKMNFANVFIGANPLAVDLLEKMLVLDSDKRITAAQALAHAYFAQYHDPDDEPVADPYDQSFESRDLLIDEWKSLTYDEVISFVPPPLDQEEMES
row,SMILES,IC50 [µM]
1,"O=C(COP(=O)(O)O)N1CCC(c2[nH]nc(-c3ccc(Cl)cc3)c2-c2ccncn2)CC1 [Example 23, mono-sodium 2-{4-[3-(4-chlorophenyl)-4-pyrimidin-4-yl-1H-pyrazol-5-yl]piperidin-1-yl}-2-oxoethyl Dihydrogen Phosphate Dihydrate]",0.0681

# Same assay, conditions: Table 1; compounds of Examples 1-28; one of two in vitro assay methods; Trifluoroacetate; read-out: p38α Kinase Inhibition (IC50 in μM)
row,IC50 [µM],SMILES
1,0.0238,"Clc1ccc(-c2n[nH]c([C@H]3CC[C@H](N4CCCCC4)CC3)c2-c2ccncn2)cc1 [Example 7, 4-[3-(4-chlorophenyl)-5-(4-piperidin-1-yl-cyclohexyl)-1H-pyrazol-4-yl]pyrimidine Trifluoroacetate]"

# Same assay, conditions: Table 1; compounds of Examples 1-28; one of two in vitro assay methods; read-out: p38α Kinase Inhibition (IC50 in μM)
row,IC50 [µM],SMILES
1,0.0232,"C[C@@H](N[C@H]1CC[C@H](c2[nH]nc(-c3ccc(Cl)cc3)c2-c2ccncn2)CC1)c1ccc(F)cc1 [Example 5, 4-[3-(4-chlorophenyl)-4-pyrimidin-4-yl-1H-pyrazol-5-yl]-N-[(1R)-1-(4-fluorophenyl)ethyl]-trans-cyclohexanamine]"
2,0.0926,"CC(C)(O)[C@H]1CC[C@H](c2[nH]nc(-c3ccc(Cl)cc3)c2-c2ccncn2)CC1 [Example 16, 2-{4-[3-(4-chlorophenyl)-4-pyrimidin-4-yl-1H-pyrazol-5-yl]cyclohexyl)propan-2-ol]"
3,0.102,"Fc1ccc(CN2CCC(c3[nH]nc(-c4ccc(Cl)cc4)c3-c3ccncn3)CC2)cc1 [Example 19, 4-{3-(4-chlorophenyl)-5-[1-(4-fluorobenzyl)piperidin-4-yl]-1H-pyrazol-4-yl}pyrimidine]"
4,0.115,"CC(C)N[C@H]1CC[C@H](c2[nH]nc(-c3ccc(F)c(F)c3)c2-c2ccncn2)CC1 [Example 13, 4-[3-(3,4-difluorophenyl)-4-pyrimidin-4-yl-1H-pyrazol-5-yl]-N-isopropylcyclohexanamine]"

row,SMILES,IC50 [µM]
1,"Fc1cc(Cl)ccc1-c1n[nH]c(C2CCNCC2)c1-c1ccncn1 [Example 26, 4-[3-(4-chloro-2-fluorophenyl)-5-piperidin-4-yl-1H-pyrazol-4-yl]pyrimidine]",0.0641

# Same assay, conditions: Table 2; additional pyrazole compounds, Examples 56-169; read-out: p38α Kinase Inhibition (IC50 in μM)
row,IC50,SMILES
1,3.39 µM,O=C(CO)N1CCC(c2[nH]nc(-c3cc(Cl)cc(Cl)c3)c2-c2ccncn2)CC1 [Example 75]
2,0.379 µM,C[C@H](O)C(=O)N1CCC(c2[nH]nc(-c3cccc(Cl)c3F)c2-c2ccncn2)CC1 [Example 109]
3,0.0182 µM,CN1CCC(c2[nH]nc(-c3ccc(Cl)cc3F)c2-c2ccnc(NC3CCCC3)n2)CC1 [Example 153]
4,0.0777 µM,C[C@H](O)C(=O)N1CCC(c2[nH]nc(-c3ccc(Cl)cc3F)c2-c2ccncn2)CC1 [Example 107]
5,1.3 µM and 0.647 µM,CN(C)CCOc1nccc(-c2c(-c3ccc(Cl)cc3F)n[nH]c2C2CCN(C(=O)CO)CC2)n1 [Example 158]
6,0.854 µM,CN(C)CCOc1nccc(-c2c(-c3ccc(F)c(C(F)(F)F)c3)n[nH]c2C2CCN(C(=O)CO)CC2)n1 [Example 139]
7,1.1 µM,O=C(CO)N1CCC(c2[nH]nc(-c3cc(F)cc(Cl)c3)c2-c2ccncn2)CC1 [Example 104]
8,0.14 µM,O=C(CO)N1CCC(c2[nH]nc(-c3ccc(Cl)cc3)c2-c2ccnc(O[C@H]3CCOC3)n2)CC1 [Example 92]
9,1.5 µM,COc1ccc(-c2n[nH]c(C3CCN(C(=O)CO)CC3)c2-c2ccncn2)cc1 [Example 84]
10,0.764 µM,COCCOCC(=O)N1CCC(c2[nH]nc(-c3ccc(Cl)cc3)c2-c2ccncn2)CC1 [Example 61]
11,0.377 µM,CN(C)CCOc1nccc(-c2c(-c3ccc(Cl)cc3)n[nH]c2C2CCN(C(=O)CO)CC2)n1 [Example 97]
12,0.216 µM,CC(=O)OCC(=O)N1CCC(c2[nH]nc(-c3ccc(Cl)c(Cl)c3)c2-c2ccncn2)CC1 [Example 66]
13,1.07 µM and 0.847 µM,CN(C)CCOc1nccc(-c2c(-c3ccc(Cl)cc3F)n[nH]c2C2CCN(C(=O)CO)CC2)n1 [Example 157]
14,0.411 µM,C[C@@H](O)C(=O)N1CCC(c2[nH]nc(-c3cccc(Cl)c3F)c2-c2ccncn2)CC1 [Example 114]
15,3.31 µM,CC(=O)OCC(=O)N1CCC(c2[nH]nc(-c3ccc(Cl)cc3)c2-c2ccnc(S(C)(=O)=O)n2)CC1 [Example 95]
16,4.6 µM,COc1cc(-c2n[nH]c(C3CCN(C(=O)CO)CC3)c2-c2ccncn2)ccc1Cl [Example 72]
17,0.474 µM,CN(C)CCNc1nccc(-c2c(-c3ccc(Cl)cc3F)n[nH]c2C2CCN(C(=O)CO)CC2)n1 [Example 162]
18,4.1 µM,CN(C)CCNc1nccc(-c2c(-c3cccc(Cl)c3)n[nH]c2C2CCN(C(=O)OC(C)(C)C)CC2)n1 [Example 145]
19,0.699 µM,CN(C)CCNc1nccc(-c2c(-c3cccc(Cl)c3)n[nH]c2C2CCN(C(=O)CO)CC2)n1 [Example 117]
20,5.85 µM,CCc1ccc(-c2n[nH]c(C3CCN(C(=O)CO)CC3)c2-c2ccncn2)cc1 [Example 82]
21,16.9 µM,CC(C)(C)OC(=O)N1CCC(c2[nH]nc(-c3ccc(Cl)cc3)c2-c2ccnc(OCCN3CCOCC3)n2)CC1 [Example 136]
22,25.7 µM,O=C(CO)N1CCC(c2[nH]nc(-c3cccc(OC(F)(F)F)c3)c2-c2ccncn2)CC1 [Example 83]
23,1.2 µM,COc1ccc(-c2n[nH]c(C3CCN(C(=O)CO)CC3)c2-c2ccncn2)cc1Cl [Example 73]
24,0.34 µM,O=C(CO)N1CCC(c2[nH]nc(-c3ccc(Cl)cc3)c2-c2ccnc(O[C@@H]3CCOC3)n2)CC1 [Example 90]
25,0.0176 µM,O=C(CO)N1CCC(c2[nH]nc(-c3ccc(Cl)cc3F)c2-c2ccnc(NC3CCCC3)n2)CC1 [Example 154]
26,4.82 µM,O=C(CO)N1CCC(c2[nH]nc(-c3c(F)cccc3F)c2-c2ccncn2)CC1 [Example 81]

# The remaining lines, values behind:
row,SMILES,IC50
1,CC(C)(C)OC(=O)N1CCC(c2[nH]nc(-c3ccc(Cl)cc3)c2-c2ccnc(OC3CCCC3)n2)CC1 [Example 131],1.68 µM
2,CC(C)C(N)C(=O)OCC(=O)N1CCC(c2[nH]nc(-c3ccc(Cl)cc3)c2-c2ccncn2)CC1 (stereo not shown) [Example 56],0.0402 µM
3,CC(C)(C)OC(=O)N1CCC(c2[nH]nc(-c3ccc(Cl)cc3)c2-c2ccnc(Oc3cccc(C#N)c3)n2)CC1 [Example 134],1.59 µM
4,CC(C)C(N)C(=O)OCC(=O)N1CCC(c2[nH]nc(-c3ccc(Cl)cc3)c2-c2ccncn2)CC1 (stereo not shown) [Example 57],0.0285 µM
5,CC(C)(C)OC(=O)N1CCC(c2[nH]nc(-c3ccc(Cl)cc3)c2-c2ccnc(Oc3ccc(C#N)cc3)n2)CC1 [Example 135],1.5 µM
6,C[C@H](N[C@H]1CC[C@H](c2[nH]nc(-c3ccc(Cl)cc3)c2-c2ccncn2)CC1)c1ccccc1 [Example 121],0.00856 µM
7,CN1CCC(c2[nH]nc(-c3ccc(Cl)cc3)c2-c2ccnc(NC3CCCC3)n2)CC1 [Example 148],0.0148 µM
8,C[C@H](O)C(=O)N1CCC(c2[nH]nc(-c3cc(C(F)(F)F)ccc3F)c2-c2ccncn2)CC1 [Example 111],0.438 µM
9,CC(C)(C)OC(=O)N1CCC(c2[nH]nc(-c3ccc(Cl)cc3)c2-c2ccnc(O[C@@H]3CCOC3)n2)CC1 [Example 132],3.34 µM
10,O=C(CO)N1CCC(c2[nH]nc(-c3cc(F)cc(C(F)(F)F)c3)c2-c2ccncn2)CC1 [Example 101],2.71 µM
11,Fc1cc(Cl)ccc1-c1n[nH]c(C2CCNCC2)c1-c1ccnc(NC2CCCC2)n1 [Example 147],0.0159 µM
12,N#Cc1ccc(-c2n[nH]c(C3CCN(C(=O)CO)CC3)c2-c2ccncn2)cc1 [Example 74],7.06 µM
13,FC(F)(F)c1cc(-c2n[nH]c(C3CCNCC3)c2-c2ccnc(NC3CCCC3)n2)ccc1NC1CCCC1 [Example 165],0.424 µM
14,Clc1ccc(-c2n[nH]c(C3CCNCC3)c2-c2ccnc(NC3CCCC3)n2)cc1 [Example 141],0.01 µM
15,C[C@H](O)C(=O)N1CCC(c2[nH]nc(-c3cc(F)cc(C(F)(F)F)c3)c2-c2ccncn2)CC1 [Example 115],8.48 µM
16,Clc1ccc(-c2n[nH]c(C3CCNCC3)c2-c2ccnc(NC3CCN(Cc4ccccc4)CC3)n2)cc1 [Example 150],0.034 µM

# — patent publication US20040082551A1, “Novel pyrazoles and their use as p38 kinase inhibitors” (priority 2002, published 2004)
